Test results: ChEMBL document CHEMBL1201862, “PubChem BioAssay data set” (2004)
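The compound was tested at five concentrations on cells cultured in 96-well plates, with a 48-hour exposure period. The concentration for 50% growth inhibition is given as GI50.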 The source made the active and inactive calls. No stated cut-off is given here; in the data, active = GI50 up to about 1.1 µM and inactive = higher.

Legend:
Assay in all cases: inhibition of tumour cell growth, NCI panel, 48 h
[1] = test system: A549
[2] = test system: CCRF-CEM
[3] = test system: EKVX
[4] = test system: HCC 2998
[5] = test system: HCT-116
[6] = test system: HOP-62
[7] = test system: HOP-92
[8] = test system: HT-29
[9] = test system: KM12
[10] = test system: MDA-MB-435
[11] = test system: NCI-H226
[12] = test system: NCI-H460
[13] = test system: OVCAR-3
[14] = test system: OVCAR-8
[15] = test system: RPMI-8226
[16] = test system: SK-MEL-28
[17] = test system: SK-MEL-2
[18] = test system: SNB-19
[19] = test system: T47D

Structure (SMILES)	GI50 [1]	GI50 [2]	GI50 [3]	GI50 [4]	GI50 [5]	GI50 [6]	GI50 [7]	GI50 [8]	GI50 [9]	GI50 [10]	GI50 [11]	GI50 [12]	GI50 [13]	GI50 [14]	GI50 [15]	GI50 [16]	GI50 [17]	GI50 [18]	GI50 [19]
O=C(CCc1ccc(O)c(O)c1)NCCc1ccccc1	76.9 µM (inactive)	3.17 µM (inactive)	> 94.2 µM (inactive)	> 100 µM (inactive)	26.4 µM (inactive)	> 100 µM (inactive)	48.3 µM (inactive)	> 45.3 µM (inactive)	49.9 µM (inactive)	15.2 µM (inactive)	99.8 µM (inactive)	> 91.2 µM (inactive)	30.1 µM (inactive)	> 47.5 µM (inactive)	6.1 µM (inactive)	85.5 µM (inactive)	32.7 µM (inactive)	> 74.5 µM (inactive)	34.4 µM (inactive)
NNC(=O)Nc1nc2ccc(NN)cc2[nH]1	74 µM (inactive)	14.6 µM (inactive)	65.5 µM (inactive)	18.5 µM (inactive)	32.8 µM (inactive)	44.4 µM (inactive)	19.7 µM (inactive)	34.5 µM (inactive)	19.5 µM (inactive)	21.5 µM (inactive)	20.2 µM (inactive)	27.4 µM (inactive)	24.5 µM (inactive)	54 µM (inactive)	7 µM (inactive)	19 µM (inactive)	44 µM (inactive)	58.5 µM (inactive)	26.4 µM (inactive)
Oc1ccc(Cn2c(-c3ccc(O)c(O)c3)nc3ccccc32)cc1O	18.2 µM (inactive)	3.37 µM (inactive)	27.9 µM (inactive)	13.9 µM (inactive)	4.72 µM (inactive)	14 µM (inactive)	6.59 µM (inactive)	30.3 µM (inactive)	13.5 µM (inactive)	12.8 µM (inactive)	7.43 µM (inactive)	15.8 µM (inactive)	14.4 µM (inactive)	7.76 µM (inactive)	13.3 µM (inactive)	22.1 µM (inactive)	18.4 µM (inactive)	9.2 µM (inactive)	10.6 µM (inactive)
Cc1cc(C)n(-c2nc(-n3nc(C)cc3C)nc(-n3nc(C)cc3C)n2)n1	> 100 µM (inactive)	62.7 µM (inactive)	40.2 µM (inactive)	> 100 µM (inactive)	> 100 µM (inactive)	> 100 µM (inactive)	> 100 µM (inactive)	> 100 µM (inactive)	> 100 µM (inactive)	> 100 µM (inactive)	35.8 µM (inactive)	33.2 µM (inactive)	> 100 µM (inactive)	68.9 µM (inactive)	93.1 µM (inactive)	> 100 µM (inactive)	> 100 µM (inactive)	> 100 µM (inactive)	> 100 µM (inactive)
CCCCn1c(N)c(-c2nc3ccccc3o2)sc1=S	13.6 µM (inactive)	32.8 µM (inactive)	21.8 µM (inactive)	36.1 µM (inactive)	10.5 µM (inactive)	21.5 µM (inactive)	45.5 µM (inactive)	27.4 µM (inactive)	12.5 µM (inactive)	12.6 µM (inactive)	15.7 µM (inactive)	15.8 µM (inactive)	16.7 µM (inactive)	17.5 µM (inactive)	21.7 µM (inactive)	18.8 µM (inactive)	13.4 µM (inactive)	41.3 µM (inactive)	19.3 µM (inactive)
C=CCNC(=O)N1CC(C)C(=O)Nc2ccccc21 (configuration not stated)	> 100 µM (inactive)	> 100 µM (inactive)	> 100 µM (inactive)	> 100 µM (inactive)	> 100 µM (inactive)	> 100 µM (inactive)	> 100 µM (inactive)	> 100 µM (inactive)	> 100 µM (inactive)	> 100 µM (inactive)	> 100 µM (inactive)	> 100 µM (inactive)	> 100 µM (inactive)	> 100 µM (inactive)	> 100 µM (inactive)	> 100 µM (inactive)	> 100 µM (inactive)	> 100 µM (inactive)	> 100 µM (inactive)
CN(C)S(=O)(=O)c1ccc2c(c1)/C(=C1/Nc3ccccc3C1=O)C(=O)N2	> 100 µM (inactive)	> 100 µM (inactive)	24 µM (inactive)	> 100 µM (inactive)	23.1 µM (inactive)	15.7 µM (inactive)	16.8 µM (inactive)	> 100 µM (inactive)	> 100 µM (inactive)	> 100 µM (inactive)	25.2 µM (inactive)	24.7 µM (inactive)	93.1 µM (inactive)	32.5 µM (inactive)	> 100 µM (inactive)	> 100 µM (inactive)	18.4 µM (inactive)	15.7 µM (inactive)	24.8 µM (inactive)
N=c1c2sc3nc4ccccc4n3c2ncn1Cc1ccccc1	> 100 µM (inactive)	> 100 µM (inactive)	> 100 µM (inactive)	> 100 µM (inactive)	> 100 µM (inactive)	> 100 µM (inactive)	> 100 µM (inactive)		0.957 µM (active)	> 100 µM (inactive)	> 100 µM (inactive)		> 100 µM (inactive)	> 100 µM (inactive)	> 100 µM (inactive)	> 100 µM (inactive)	> 100 µM (inactive)	> 100 µM (inactive)	> 100 µM (inactive)
O=[N+]([O-])c1ccc(N2N=C(c3c(O)ccc4ccccc34)CC2c2ccc(Cl)cc2)c([N+](=O)[O-])c1 (configuration not stated)	15.1 µM (inactive)	11.1 µM (inactive)		28.6 µM (inactive)	15.3 µM (inactive)	24.4 µM (inactive)	26 µM (inactive)	20.1 µM (inactive)	5.65 µM (inactive)	25.6 µM (inactive)	20.9 µM (inactive)	29.9 µM (inactive)	29.9 µM (inactive)	21.7 µM (inactive)	15.3 µM (inactive)	46.9 µM (inactive)	17.8 µM (inactive)		32.6 µM (inactive)
O=C(N/N=C/c1ccc(Cl)cc1)c1c(Cl)c(Cl)c(Cl)c(Cl)c1-c1nc2ccccc2[nH]1	> 100 µM (inactive)	50.4 µM (inactive)	16.9 µM (inactive)	5.5 µM (inactive)	40.3 µM (inactive)	0.0452 µM (active)	23.6 µM (inactive)	47.3 µM (inactive)	8.36 µM (inactive)	74.3 µM (inactive)	0.224 µM (active)	30 µM (inactive)	> 100 µM (inactive)		22.2 µM (inactive)	> 100 µM (inactive)	93.1 µM (inactive)	> 100 µM (inactive)	4.47 µM (inactive)
COc1ccc(C2CC(c3c(O)ccc4ccccc34)=NN2C(C)=O)cc1OC (configuration not stated)	24.9 µM (inactive)	12.6 µM (inactive)		23.7 µM (inactive)	15.3 µM (inactive)	26.9 µM (inactive)	27.8 µM (inactive)	40 µM (inactive)	34.2 µM (inactive)	21.3 µM (inactive)	36.2 µM (inactive)	28.1 µM (inactive)	23.2 µM (inactive)	34.4 µM (inactive)	12 µM (inactive)	28.8 µM (inactive)	19.3 µM (inactive)		34.6 µM (inactive)
